Data from patent US20100216779A1 (GLAXOSMITHKLINE LLC, priority 2007, published 2010).

Tests used:
Type in all cases: cell-based
[1] = biological target: T1, IR (NIH-3T3 cells over expressing human IGF-1R or IR) (Homo sapiens, UniProt P06213); test: IR cellular autophosphorylation (DELFIA); details: NIH-3T3 cells over expressing IR, insulin stimulated
T1 construct: expressed in transfected cells; host or cells: NIH-3T3 (mouse fibroblasts)
In short: (§1)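 Readout: DELFIA on lysates, with anti-IGF-1R or anti-IR capture and europium anti-pTyr detection, expressed relative to 100% ligand-stimulated signal. Human IGF-1R- or IR-overexpressing NIH-3T3 cells got compound (1.5 nM–30 uM) for 2 h before 15 min IGF-1 (30 ng/mL) or insulin (3 ug/mL).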

[2] = tested on: NCI-H929 (multiple myeloma); test: Inhibition of cell proliferation, CellTiter-Glo, NCI-H929; details: Homo sapiens, 72 h
In short: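 Cells were grown in medium with 10% FBS at 37° C, 5% CO2. Cell number was read as CellTiter-Glo luminescence (cellular ATP), with untreated wells as control.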

[3] = biological target: T2, human IGF-1R (NIH-3T3 cells over expressing human IGF-1R) (Homo sapiens, UniProt P08069); test: IGF-1R cellular autophosphorylation (DELFIA); details: IGF-1 stimulated
T2 construct: expressed in transfected cells; host or cells: NIH-3T3 (mouse fibroblasts)
In short: as §1

COLO205 (colon) = test: Inhibition of cell proliferation, CellTiter-Glo, COLO205; details: Homo sapiens, COLO 205, 72 h
In short: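 Exponentially growing COLO205 cells in medium with 10% FBS were plated below 2000 cells/well at 37 °C, 5% CO2. Untreated wells served as controls.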

T2 sequence (P08069 31-1367): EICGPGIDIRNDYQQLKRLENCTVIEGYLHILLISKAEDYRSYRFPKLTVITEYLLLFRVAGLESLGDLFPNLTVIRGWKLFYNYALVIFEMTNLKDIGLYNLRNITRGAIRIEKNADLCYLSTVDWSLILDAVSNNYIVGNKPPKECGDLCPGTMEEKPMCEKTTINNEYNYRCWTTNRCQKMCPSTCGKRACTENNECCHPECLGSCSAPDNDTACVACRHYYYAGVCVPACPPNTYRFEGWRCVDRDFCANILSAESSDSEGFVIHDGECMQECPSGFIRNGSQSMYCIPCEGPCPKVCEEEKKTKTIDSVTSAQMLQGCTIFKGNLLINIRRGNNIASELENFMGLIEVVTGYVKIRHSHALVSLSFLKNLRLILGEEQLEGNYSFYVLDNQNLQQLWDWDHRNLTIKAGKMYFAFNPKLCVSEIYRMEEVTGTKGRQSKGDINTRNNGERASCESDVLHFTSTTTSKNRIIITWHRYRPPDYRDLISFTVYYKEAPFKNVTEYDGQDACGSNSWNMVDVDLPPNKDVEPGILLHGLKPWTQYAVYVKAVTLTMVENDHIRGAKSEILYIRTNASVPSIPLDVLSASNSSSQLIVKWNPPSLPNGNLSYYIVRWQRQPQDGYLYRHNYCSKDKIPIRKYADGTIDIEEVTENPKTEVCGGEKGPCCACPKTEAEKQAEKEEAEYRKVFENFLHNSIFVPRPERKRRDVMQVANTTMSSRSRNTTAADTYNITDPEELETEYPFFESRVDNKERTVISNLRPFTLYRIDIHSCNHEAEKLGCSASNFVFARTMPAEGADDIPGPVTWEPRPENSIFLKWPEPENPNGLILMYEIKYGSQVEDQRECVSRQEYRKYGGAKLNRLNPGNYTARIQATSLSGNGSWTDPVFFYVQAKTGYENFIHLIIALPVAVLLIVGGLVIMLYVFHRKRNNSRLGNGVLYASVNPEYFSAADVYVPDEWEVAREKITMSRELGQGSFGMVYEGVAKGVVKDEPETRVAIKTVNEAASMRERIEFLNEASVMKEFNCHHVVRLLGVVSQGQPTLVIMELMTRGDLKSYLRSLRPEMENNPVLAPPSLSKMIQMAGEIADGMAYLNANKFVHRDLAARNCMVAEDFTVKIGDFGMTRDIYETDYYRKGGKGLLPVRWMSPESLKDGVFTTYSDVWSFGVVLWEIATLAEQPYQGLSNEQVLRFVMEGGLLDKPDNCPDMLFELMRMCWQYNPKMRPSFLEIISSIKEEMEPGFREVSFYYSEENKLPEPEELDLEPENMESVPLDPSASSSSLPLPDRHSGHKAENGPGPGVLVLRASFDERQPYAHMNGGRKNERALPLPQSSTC
T1 sequence (P06213 28-1382): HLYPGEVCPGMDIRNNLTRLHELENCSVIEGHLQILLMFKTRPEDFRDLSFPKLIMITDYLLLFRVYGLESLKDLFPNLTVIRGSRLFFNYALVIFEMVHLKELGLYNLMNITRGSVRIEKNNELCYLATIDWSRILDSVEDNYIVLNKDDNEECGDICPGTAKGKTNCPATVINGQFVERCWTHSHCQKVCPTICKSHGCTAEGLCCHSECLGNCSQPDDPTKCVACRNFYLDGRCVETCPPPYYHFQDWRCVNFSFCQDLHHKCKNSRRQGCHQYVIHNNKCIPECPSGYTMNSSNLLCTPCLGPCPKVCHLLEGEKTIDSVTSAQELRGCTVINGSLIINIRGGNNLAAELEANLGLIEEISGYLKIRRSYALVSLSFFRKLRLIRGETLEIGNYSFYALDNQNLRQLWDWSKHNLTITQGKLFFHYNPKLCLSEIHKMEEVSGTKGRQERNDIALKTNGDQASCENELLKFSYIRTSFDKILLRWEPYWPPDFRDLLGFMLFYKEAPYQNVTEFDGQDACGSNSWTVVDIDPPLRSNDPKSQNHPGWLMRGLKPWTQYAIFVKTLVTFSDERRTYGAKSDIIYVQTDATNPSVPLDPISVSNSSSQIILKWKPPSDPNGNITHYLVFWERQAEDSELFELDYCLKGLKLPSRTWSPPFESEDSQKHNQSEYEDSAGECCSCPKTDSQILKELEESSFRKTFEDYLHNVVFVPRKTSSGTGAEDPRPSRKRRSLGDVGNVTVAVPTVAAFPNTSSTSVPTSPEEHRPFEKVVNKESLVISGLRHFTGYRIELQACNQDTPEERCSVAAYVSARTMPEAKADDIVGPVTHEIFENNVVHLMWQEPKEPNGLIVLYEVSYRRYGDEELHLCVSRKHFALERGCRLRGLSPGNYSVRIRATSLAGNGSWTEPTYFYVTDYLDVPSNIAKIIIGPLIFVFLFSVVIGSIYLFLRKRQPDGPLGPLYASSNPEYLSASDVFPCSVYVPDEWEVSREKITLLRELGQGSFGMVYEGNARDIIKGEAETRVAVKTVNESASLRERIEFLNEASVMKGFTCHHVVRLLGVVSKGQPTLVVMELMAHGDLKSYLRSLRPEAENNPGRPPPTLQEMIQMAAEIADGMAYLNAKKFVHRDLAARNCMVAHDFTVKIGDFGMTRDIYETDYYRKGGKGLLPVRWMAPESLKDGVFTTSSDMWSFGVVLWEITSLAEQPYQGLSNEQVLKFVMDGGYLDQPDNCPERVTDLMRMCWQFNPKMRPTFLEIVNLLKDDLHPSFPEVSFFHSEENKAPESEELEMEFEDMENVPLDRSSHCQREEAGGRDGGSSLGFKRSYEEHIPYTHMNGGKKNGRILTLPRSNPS

SMILES	IC50 [1] [nM]	IC50 [2] [nM]	IC50 [3] [nM]	IC50 (COLO205 (colon)) [nM]
COc1cc(N2CCC(N3CCN(CCF)CC3)CC2)ccc1Nc1nccc(-c2c(-c3ccc(OC)c(C(=O)Nc4c(F)cccc4F)c3)nc3cc(F)ccn23)n1 [Example 197, N-(2,6-difluorophenyl)-5-[7-fluoro-3-(2-{[4-{4-[4-(2-fluoroethyl)-1-piperazinyl]-1-piperidinyl]-2-(methyloxy)phenyl]amino}-4-pyrimidinyl)imidazo[1,2-a]pyridin-2-yl]-2-(methyloxy)benzamide]	< 100	< 250	< 100	250 to 1000
COc1cc(N2CCC(N3CCCCC3)CC2)ccc1Nc1nccc(-c2c(-c3ccc(OC)c(C(=O)Nc4c(F)cccc4F)c3)nc3cc(F)ccn23)n1 [Example 198, 5-[3-(2-{[4-(1,4′-bipiperidin-1′-yl)-2-(methyloxy)phenyl]amino}-4-pyrimidinyl)-7-fluoroimidazo[1,2-a]pyridin-2-yl]-N-(2,6-difluorophenyl)-2-(methyloxy)benzamide]	< 100	< 250	< 100	250 to 1000
COc1cc(N2CCC(N3CCN(S(C)(=O)=O)CC3)CC2)ccc1Nc1nccc(-c2c(-c3ccc(OC)c(C(=O)Nc4c(F)cccc4F)c3)nc3cc(F)ccn23)n1 [Example 199, N-(2,6-difluorophenyl)-5-(7-fluoro-3-{2-[(2-(methyloxy)-4-{4-[4-(methylsulfonyl)-1-piperazinyl]-1-piperidinyl}phenyl)amino]-4-pyrimidinyl}imidazo[1,2-a]pyridin-2-yl)-2-(methyloxy)benzamide]	< 100	< 250	< 100	250 to 1000
CCOc1ccc(-c2nc3ccccn3c2-c2ccnc(Nc3ccc(N4CCC(CCS(C)(=O)=O)CC4)cc3OC)n2)cc1C(=O)Nc1c(F)cccc1F [Example 200, N-(2,6-difluorophenyl)-2-(ethyloxy)-5-(3-{2-[(2-(methyloxy)-4-{4-[2-(methylsulfonyl)ethyl]-1-piperidinyl}phenyl)amino]-4-pyrimidinyl}imidazo[1,2-a]pyridin-2-yl)benzamide]	< 100	< 250	< 100	< 250
COc1cc(N2CCC(CCS(C)(=O)=O)CC2)ccc1Nc1nccc(-c2c(-c3ccc(OC)c(C(=O)Nc4c(F)cccc4F)c3)nc3ccccn23)n1 [Example 201, N-(2,6-difluorophenyl)-2-(methyloxy)-5-(3-{2-[(2-(methyloxy)-4-{4-[2-(methylsulfonyl)ethyl]-1-piperidinyl}phenyl)amino]-4-pyrimidinyl}imidazo[1,2-a]pyridin-2-yl)benzamide]	< 100	< 250	< 100	250 to 1000
COc1cc(N2CCC(CCS(C)(=O)=O)CC2)ccc1Nc1nccc(-c2c(-c3cccc(C(=O)Nc4c(F)cccc4F)c3)nc3ccccn23)n1 [Example 202, N-(2,6-difluorophenyl)-3-(3-{2-[(2-(methyloxy)-4-{4-[2-(methylsulfonyl)ethyl)-1-piperidinyl}phenyl)amino]-4-pyrimidinyl]imidazo[1,2-a]pyridin-2-yl)benzamide]	100 to 500	< 250	100 to 500	250 to 1000
CCOc1ccc(-c2nc3ccccn3c2-c2ccnc(Nc3cc(C)c(N4CCCN(CCS(C)(=O)=O)CC4)cc3OC)n2)cc1C(=O)Nc1c(F)cccc1F [Example 203, N-(2,6-difluorophenyl)-2-(ethyloxy)-5-(3-{2-[(5-methyl-2-(methyloxy)-4-{4-[2-(methylsulfonyl)ethyl)hexahydro-1H-1,4-diazepin-1-yl]phenyl)amino]-4-pyrimidinyl}imidazo[1,2-a]pyridin-2-yl)benzamide]	< 100	< 250	< 100	< 250
CCOc1cc(N2CCC(N3CCN(S(C)(=O)=O)CC3)CC2)c(CC)cc1Nc1nccc(-c2c(-c3ccc(OC)c(C(=O)Nc4c(F)cccc4F)c3)nc3ccccn23)n1 [Example 204, N-(2,6-difluorophenyl)-5-(3-{2-[(5-ethyl-2-(ethyloxy)-4-{4-[4-(methylsulfonyl)-1-piperazinyl]-1-piperidinyl]phenyl)amino]-4-pyrimidinyl}imidazo[1,2-a]pyridin-2-yl)-2-(methyloxy)benzamide]	< 100	< 250	< 100	< 250
CCc1cc(Nc2nccc(-c3c(-c4ccc(OC)c(C(=O)Nc5c(F)cccc5F)c4)nc4ccccn34)n2)c(OC)cc1N1CCC(CCS(C)(=O)=O)CC1 [Example 207, N-(2,6-difluorophenyl)-5-(3-{2-[(5-ethyl-2-(methyloxy)-4-{4-[2-(methylsulfonyl)ethyl]-1-piperidinyl}phenyl)amino]-4-pyrimidinyl}imidazo[1,2-a]pyridin-2-yl)-2-(methyloxy)benzamide]	< 100	< 250	< 100	< 250
CCOc1cc(N2CCC(CCS(C)(=O)=O)CC2)c(CC)cc1Nc1nccc(-c2c(-c3ccc(OC)c(C(=O)Nc4c(F)cccc4F)c3)nc3ccccn23)n1 [Example 210, N-(2,6-difluorophenyl)-5-[3-{2-[(5-ethyl-2-(ethyloxy)-4-{4-[2-(methylsulfonyl)ethyl]-1-piperidinyl}phenyl)amino]-4-pyrimidinyl}imidazo[1,2-a]pyridin-2-yl)-2-(methyloxy)benzamide]	< 100	< 250	< 100	< 250
CCOc1cc(N2CCN(CCS(C)(=O)=O)CC2)c(CC)cc1Nc1nccc(-c2c(-c3ccc(OCC)c(C(=O)Nc4c(F)cccc4F)c3)nc3ccccn23)n1 [Example 211, N-(2,6-difluorophenyl)-5-(3-{2-[(5-ethyl-2-(ethyloxy)-4-{4-[2-(methylsulfonyl)ethyl]-1-piperazinyl}phenyl)amino]-4-pyrimidinyl}imidazo[1,2-a]pyridin-2-yl)-2-(ethyloxy)benzamide]	< 100	< 250	< 100	< 250
COc1cc(N2CCN(CCS(C)(=O)=O)CC2)c(Cl)cc1Nc1nccc(-c2c(-c3ccc(OC)c(C(=O)Nc4c(F)cccc4F)c3)nc3ccccn23)n1 [Example 213, 5-(3-{2-[(5-chloro-2-(methyloxy)-4-{4-[2-(methylsulfonyl)ethyl]-1-piperazinyl}phenyl)amino]-4-pyrimidinyl}imidazo[1,2-a]pyridin-2-yl)-N-(2,6-difluorophenyl)-2-(methyloxy)benzamide]	< 100	< 250	< 100	< 250
CCOc1cc(N2CCC(CCS(C)(=O)=O)CC2)c(C)cc1Nc1nccc(-c2c(-c3cccc(C(=O)Nc4c(F)cccc4F)c3)nc3ccccn23)n1 [Example 221, N-(2,6-difluorophenyl)-3-(3-{2-[(2-(ethyloxy)-5-methyl-4-{4-[2-(methylsulfonyl)ethyl]-1-piperidinyl}phenyl)amino]-4-pyrimidinyl}imidazo[1,2-a]pyridin-2-yl)benzamide]	< 100	< 250	< 100	250 to 1000
